From article PMC5514153, “Targeting PTPRZ inhibits stem cell-like properties and tumorigenicity in glioblastoma cells” (Scientific Reports, 2017) come the findings set out here.

For test [1], the system named is oligodendrocyte precursor OL1 cells. Description: OL1 oligodendrocyte differentiation assay. In kind it is cell-based, mouse. The following applies: 10 days in differentiation media. How it is done:
Figure 6 Effects of NAZ2329 treatment on oligodendrocyte differentiation. Mouse oligodendrocyte-lineage OL1 cells were cultured in differentiation media containing the indicated concentrations of NAZ2329. After 10 days, cells were fixed with formalin and stained with anti-NG2 proteoglycan (oligodendrocyte precursor cells, red) and anti-MBP (oligodendrocyte, green) antibodies, in conjunction with the DAPI-labeling of nuclei (blue). Scale bars, 100 µm.
The preparation of mouse oligodendrocyte-lineage OL1 cells was described previously. […] On the 10th day of the culture, differentiation from oligodendrocyte precursor cells to oligodendrocytes was assessed was described previously[14]–[16]. Briefly, cells were fixed and stained with anti-NG2 (a specific marker for oligodendrocyte precursor cells) and anti-MBP (a marker for matured oligodendrocytes), and the observed with a standard fluorescence microscope (Biozero BZ8000, Keyence). Differentiation from oligodendrocyte precursor cells to oligodendrocytes was expressed as the ratio of MBP-positive cells to NG2-positive cells.

Another test relates to C6 cells. The experiment in a line: Boyden chamber migration assay, C6 cells. It counts as cell-based, rat. The note with it: 3 h. As for the experimental part:
Figure 7 Cellular effects of NAZ2329 on the malignant phenotypes of C6 cells. (A) Phosphorylation of paxillin at Tyr-118. C6 cells were incubated with NAZ2329 for the indicated periods. Immunoprecipitated paxillin was analyzed by Western blotting using anti-pY118-paxillin and anti-paxillin. Blots are representative of five independent cultures. […] (B) Cell proliferation assay. C6 cells were incubated for 48 h with NAZ2329 in normal medium containing 2% FBS. […] (C) Boyden chamber assay. Cells were allowed to migrate for 3 h. DAPI-stained nuclei are shown before (total) and after (migrated) the removal of cells remaining in the top chamber. Scale bars, 100 µm. […] (D,E) Sphere formation (D) and SOX2 expression (E). C6 cells were cultured in CSC medium for 7 days with indicated concentrations of NAZ2329. Images are representative of five independent cultures. Scale bars, 100 µm. […] (F) Self-renewal of C6 spheres. C6 spheres were initially developed in CSC medium for 7 days, followed by an incubation with NAZ2329 in CSC medium for 5 days. Images are representative of five independent cultures. Scale bars, 100 µm. […] Full-length blots and gels are presented in Supplementary Fig. S7.
This assay was performed as described previously. […] Cells were allowed to migrate for 3 h, and the number of cells that migrated to the lower surface was counted under a conventional fluorescence microscope.

The test system of another test is C6 xenograft. The experiment in a line: C6 subcutaneous xenograft nude mouse model. In kind it is in vivo. The following applies: nude mice, i.p. twice per week; NAZ2329 45 µmol (22.5 mg)/kg, TMZ 50 mg/kg; vehicle 17 days. How it is done: Figure 10 Antitumor effects of NAZ2329 on the C6 mouse xenograft model. (A) Nude mice were subcutaneously implanted with C6 cells (5 × 10^6 cells), and tumor size was monitored until the criteria were met (>150 mm^3). At this time, mice were randomly divided into 4 treatment groups. DMSO as the vehicle control (n = 7), NAZ2329 (45 µmol (22.5 mg)/kg body weight, n = 9), temozolomide (TMZ, 50 mg/kg, n = 9), and the combination of NAZ2329 (45 µmol/kg) with TMZ (50 mg/kg) (n = 9) were administered intraperitoneally twice per week until the humane endpoint (>3,000 mm^3 tumor size or 40 days after the treatment). Tumor growth in each animal and the number of days required to reach a tumor volume of 3,000 mm^3 are shown in the graph. Five mice were sacrificed due to tumor necrosis (shown by gray symbols in the graph), and two mice unexpectedly died suddenly during the observation period (black symbols in the graph).
Parental or Ptprz-knockdown C6 cells (5 × 10^6 cells) suspended in a volume of 100 µl were subcutaneously injected into the left hind limbs of BALB/c-nu/nu mice (females, 4 weeks old mice were purchased from Japanese Charles River Co. Ltd.). Tumor growth was measured with calipers and calculated by the formula: volume = length × width × width × 0.5, as previously described. The drug treatment initiated when the tumor size reached 150 mm^3. […]

`CCOc1ccc(C(F)(F)F)cc1CSc1ccsc1C(=O)NS(=O)(=O)c1ccccc1` [NAZ2329]: the “differentiation of OL1 cells to mature oligodendrocytes (MBP-positive/NG2-positive ratio)” value in test [1] is “dose-dependently induced the differentiation”. Moreover, the cell migration entry in the test with C6 cells is recorded as “inhibited”. Also, the “median day for the tumor size to reach 3,000 mm^3” value in the test with C6 xenograft is listed as 25 days.
